Source: PMC5296247 (European journal of medicinal chemistry, 2016)

Columns and labels:
HG23 cells = experiment: Nonspecific cytotoxic effects in HG23 cells; assay type: cell-based; conditions: cytotoxic dose for 50% cell death (CC50), 1 to 100 μM, 48 h, CytoTox 96 kit and crystal violet staining, average of at least two determinations
NV 3CLpro = NV 3CLpro (Norwalk virus, UniProt Q83883); experiment: FRET protease assay, NV 3CLpro; assay type: biochemical; conditions: for Activity against NV 3CLpro and in cell based assays (in words): summary of Table 1; for Fold less active than compounds 13/25: n-pentyl chain versus m-chlorophenyl
Sequence of NV 3CLpro (Q83883 1101-1281): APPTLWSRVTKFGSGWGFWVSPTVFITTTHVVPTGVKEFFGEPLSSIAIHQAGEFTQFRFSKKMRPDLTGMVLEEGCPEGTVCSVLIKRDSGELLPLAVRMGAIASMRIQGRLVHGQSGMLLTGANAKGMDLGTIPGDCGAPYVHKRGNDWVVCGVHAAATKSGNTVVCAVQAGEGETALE

Structure (SMILES) | TC50 (EC50) (HG23 cells) [µM] | further results
CC(C)C[C@@H]1NC(=O)OC(c2cccc(Cl)c2)CCCCCONC(=O)CC[C@@H](C=O)NC1=O (single isomer, unassigned) [Compound 36A] | 68.3 | –
CC(C)C[C@@H]1NC(=O)OC(c2cccc(Cl)c2)CCCCCONC(=O)CC[C@@H](C=O)NC1=O (single isomer, unassigned) [Compound 36B] | 73.8 | –
O=C[C@@H]1CCC(=O)NCCCCCC(c2cccc(Cl)c2)OC(=O)N[C@@H](CC2CCCCC2)C(=O)N1 (stereo partly drawn) [14(major), (4S, 7S)-17-(3-Chlorophenyl)-4-(cyclohexylmethyl)-2,5,10-trioxo-1-oxa-3,6,11-triazacycloheptadecane-7-carbaldehyde] | 62.4 | –
O=C[C@@H]1CCC(=O)NCCCCCC(c2cccc(Cl)c2)OC(=O)N[C@@H](CC2CCCCC2)C(=O)N1 (stereo partly drawn) [14(minor), (4S, 7S)-17-(3-Chlorophenyl)-4-(cyclohexylmethyl)-2,5,10-trioxo-1-oxa-3,6,11-triazacycloheptadecane-7-carbaldehyde] | 45.3 | –
CC(C)C[C@@H]1NC(=O)OC(c2ccccc2)CCCCCNC(=O)CC[C@@H](C=O)NC1=O (stereo partly drawn) [Compound 11, (4S, 7S)-4-Isobutyl-2,5,10-trioxo-17-phenyl-1-oxa-3,6,11-triazacycloheptadecane-7-carbaldehyde] | >100 | –
CC(C)C[C@@H]1NC(=O)OC(Cc2ccccc2)CCCCCNC(=O)CC[C@@H](C=O)NC1=O (stereo partly drawn) [Compound 12, (4S, 7S)-17-Benzyl-4-isobutyl-2,5,10-trioxo-1-oxa-3,6,11-triazacycloheptadecane-7-carbaldehyde] | >100 | –
CC(C)C[C@@H]1NC(=O)OC(c2cccc(Cl)c2)CCCCCNC(=O)CC[C@@H](C=O)NC1=O (stereo partly drawn) [Compound 13, (4S, 7S)-17-(3-Chlorophenyl)-4-isobutyl-2,5,10-trioxo-1-oxa-3,6,11-triazacycloheptadecane-7-carbaldehyde] | >100 | –
CC(C)C[C@@H]1NC(=O)OC(c2cccc(Cl)c2)CCCCCCNC(=O)CC[C@@H](C=O)NC1=O (stereo partly drawn) [Compound 15, (4S, 7S)-18-(3-Chlorophenyl)-4-isobutyl-2,5,10-trioxo-1-oxa-3,6,11-triazacyclooctadecane-7-carbaldehyde] | 67.4 | –
C[C@@H]1NC(=O)OC(c2cccc(Cl)c2)CCCCCNC(=O)CC[C@@H](C=O)NC1=O (stereo partly drawn) [Compound 16, (4S, 7S)-17-(3-Chlorophenyl)-4-methyl-2,5,10-trioxo-1-oxa-3,6,11-triazacycloheptadecane-7-carbaldehyde] | >100 | –
C[C@@H]1NC(=O)OC(c2cccc(Cl)c2)CCCCCCNC(=O)CC[C@@H](C=O)NC1=O (stereo partly drawn) [Compound 17, (4S, 7S)-18-(3-Chlorophenyl)-4-methyl-2,5,10-trioxo-1-oxa-3,6,11-triazacyclooctadecane-7-carbaldehyde] | >100 | –
O=C[C@@H]1CCC(=O)NCCCCCC(c2cccc(Cl)c2)OC(=O)NC2(CCCCC2)C(=O)N1 (stereo partly drawn) [Compound 18, (20S)-10-(3-Chlorophenyl)-8,17,22-trioxo-9-oxa-7,16,21-triazaspiro[5.16]docosane-20-carbaldehyde] | 62.4 | Activity against NV 3CLpro and in cell based assays (in words) (NV 3CLpro): inactive
O=C[C@@H]1CCC(=O)NCCCCCCC(c2cccc(Cl)c2)OC(=O)NC2(CCCCC2)C(=O)N1 (stereo partly drawn) [Compound 19, (21S)-10-(3-Chlorophenyl)-8,18,23-trioxo-9-oxa-7,17,22-triazaspiro [5.17] tricosane-21-carbaldehyde] | 53.3 | Activity against NV 3CLpro and in cell based assays (in words) (NV 3CLpro): inactive
CC(C)C[C@@H]1NC(=O)OC(CCCc2ccccc2)CCCCCNC(=O)CC[C@@H](C=O)NC1=O (stereo partly drawn) [Compound 20, (4S, 7S)-4-Isobutyl-2,5,10-trioxo-17-(3-phenylpropyl)-1-oxa-3,6,11-triazacycloheptadecane-7-carbaldehyde] | 71.5 | –
CCCCCC1CCCCCNC(=O)CC[C@@H](C=O)NC(=O)[C@H](CC(C)C)NC(=O)O1 (stereo partly drawn) [Compound 21, (4S, 7S)-4-Isobutyl-2,5,10-trioxo-17-pentyl-1-oxa-3,6,11-triazacycloheptadecane-7-carbaldehyde] | 72.7 | Fold less active than compounds 13/25 (NV 3CLpro; Table 1): ~ 2 fold
CC(C)C[C@@H]1NC(=O)OC(Cc2ccccc2)CC/C=C/CNC(=O)CC[C@@H](C=O)NC1=O (stereo partly drawn) [Compound 23, (4S, 7S, E)-17-Benzyl-4-isobutyl-2,5,10-trioxo-1-oxa-3,6,11-triazacycloheptadec-13-ene-7-carbaldehyde] | >100 | Fold more potent than compound 12 (NV 3CLpro; unsaturated linker versus saturated linker, Table 1): ~ 2 fold
O=C[C@@H]1CCC(=O)NC/C=C/CCC(c2cccc(Cl)c2)OC(=O)N[C@@H](CC2CCCCC2)C(=O)N1 (stereo partly drawn) [Compound 24, (4S, 7S, E)-17-(3-Chlorophenyl)-4-(cyclohexylmethyl)-2,5,10-trioxo-1-oxa-3,6,11-triazacycloheptadec-13-ene-7-carbaldehyde] | 42.3 | –
CC(C)C[C@@H]1NC(=O)OC(c2cccc(Cl)c2)CCCCCNC(=O)CC[C@@H](C(O)S(=O)(=O)[O-])NC1=O.[Na+] (stereo partly drawn) [Compound 25, Sodium ((4S, 7S)-17-(3-chlorophenyl)-4-isobutyl-2,5,10-trioxo-1-oxa-3,6,11-triazacycloheptadecan-7-yl) (hydroxy) methanesulfonate] | >100 | –
O=C1CC[C@@H](C(O)S(=O)(=O)[O-])NC(=O)C2(CCCCC2)NC(=O)OC(c2cccc(Cl)c2)CCCCCN1.[Na+] (stereo partly drawn) [Compound 26, Sodium ((20S)-10-(3-chlorophenyl)-8,17,22-trioxo-9-oxa-7,16,21-triazaspiro [5.16]docosan-20-yl) (hydroxy) methanesulfonate] | 48.5 | Activity against NV 3CLpro and in cell based assays (in words) (NV 3CLpro): inactive
O=C1CC[C@@H](C(O)S(=O)(=O)[O-])NC(=O)C2(CCCCC2)NC(=O)OC(c2cccc(Cl)c2)CCCCCCN1.[Na+] (stereo partly drawn) [Compound 27, Sodium ((21S)-10-(3-chlorophenyl)-8,18,23-trioxo-9-oxa-7,17,22-triazaspiro[5.17]tricosan-21-yl) (hydroxy) methanesulfonate] | 46.6 | Activity against NV 3CLpro and in cell based assays (in words) (NV 3CLpro): inactive
CC(C)C[C@@H]1NC(=O)OC(CCCc2ccccc2)CCCCCNC(=O)CC[C@@H](C(O)S(=O)(=O)[O-])NC1=O.[Na+] (stereo partly drawn) [Compound 28, Sodium hydroxyl ((4S, 7S)-4-isobutyl-2,5,10-trioxo-17-(3-phenylpropyl)-1-oxa-3,6,11-triazacycloheptadecan-7-yl) methanesulfonate] | 69.2 | –
CCCCCC1CCCCCNC(=O)CC[C@@H](C(O)S(=O)(=O)[O-])NC(=O)[C@H](CC(C)C)NC(=O)O1.[Na+] (stereo partly drawn) [Compound 29, Sodium hydroxyl ((4S, 7S)-4-isobutyl-2,5,10-trioxo-17-pentyl-1-oxa-3,6,11-triazacycloheptadecan-7-yl) methanesulfonate] | 78.5 | Fold less active than compounds 13/25 (NV 3CLpro; Table 1): ~ 2 fold
CC(C)C[C@@H]1NC(=O)OC(c2cccc(Cl)c2)CCCCCNC(=O)CC[C@@H](C(=O)C(=O)NC2CC2)NC1=O (stereo partly drawn) [Compound 31, 2-((4S, 7S)-17-(3-Chlorophenyl)-4-isobutyl-2,5,10-trioxo-1-oxa-3,6,11-triazacycloheptadecan-7-yl)-N-cyclopropyl-2-oxoacetamide] | 53.1 | –
